In PubChem BioAssay AID1845209 (Molecular Pharmacology Branch, DTP, NCI, 2023):

Test system: NCI-H211 tumor spheroids, viability percent test/control
Assay: Anticancer human tumor NCI-H211 cell line growth inhibition;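 further: spheroids exposed to agents for seven days before readout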
Conditions: spheroids with HUVEC and MSC; for IC50: curve of first compound; for viability, T/C: stronger effect = lower value
Summary of the method: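 Single agents and combinations were tested on spheroids built from tumor cells plus HUVEC and hMSC, at half-log dilutions starting at or near clinical Cmax, else 10 microM; final DMSO 0.25% (v/v).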

`Cc1cc(C)c(CNC(=O)c2cc(-c3ccc(CN4CCOCC4)cc3)cc3c2cnn3C2CCCC2)c(=O)[nH]1` + CC[C@@]1(O)C(=O)OCc2c1cc1n(c2=O)Cc2cc3c(CN(C)C)c(O)ccc3nc2-1 showed an IC50 (second compound 0.003 µM) of 1890 nM, an IC50 (second compound 0.00949 µM) of under 31.6 nM and an IC50 (second compound 0.03 µM) of under 31.6 nM. It also gave an IC50 (second compound 0.0949 µM) of under 31.6 nM, an IC50 (second compound 0.3 µM) of under 31.6 nM and a viability, T/C (second compound 0.003 µM, first compound 0.0316 µM) of 83.3%. It also gave a viability, T/C (second compound 0.003 µM, first compound 0.1 µM) of 78.6%, a viability, T/C (second compound 0.003 µM, first compound 0.316 µM) of 74.2% and a viability, T/C (second compound 0.003 µM, first compound 1 µM) of 58.4%. The viability, T/C (second compound 0.003 µM, first compound 3.16 µM) was 42.8%, the viability, T/C (second compound 0.003 µM, first compound 10 µM) was 24.6% and the viability, T/C (second compound 0.00949 µM, first compound 0.0316 µM) was 10.6%. The viability, T/C (second compound 0.00949 µM, first compound 0.1 µM) was 8.26%, the viability, T/C (second compound 0.00949 µM, first compound 0.316 µM) was 5.43% and the viability, T/C (second compound 0.00949 µM, first compound 1 µM) was 3.96%. For the same compound, the viability, T/C (second compound 0.00949 µM, first compound 3.16 µM) was 2.11%, the viability, T/C (second compound 0.00949 µM, first compound 10 µM) was 1.31% and the viability, T/C (second compound 0.03 µM, first compound 0.0316 µM) was 0.94%. It also gave a viability, T/C (second compound 0.03 µM, first compound 0.1 µM) of 1.14%, a viability, T/C (second compound 0.03 µM, first compound 0.316 µM) of 1.13% and a viability, T/C (second compound 0.03 µM, first compound 1 µM) of 0.98%. For the same compound, the viability, T/C (second compound 0.03 µM, first compound 3.16 µM) was 1.02%, the viability, T/C (second compound 0.03 µM, first compound 10 µM) was 0.92% and the viability, T/C (second compound 0.0949 µM, first compound 0.0316 µM) was 1.01%. It also gave a viability, T/C (second compound 0.0949 µM, first compound 0.1 µM) of 1.06%, a viability, T/C (second compound 0.0949 µM, first compound 0.316 µM) of 0.94% and a viability, T/C (second compound 0.0949 µM, first compound 1 µM) of 1.17%. It also gave a viability, T/C (second compound 0.0949 µM, first compound 3.16 µM) of 1.46%, a viability, T/C (second compound 0.0949 µM, first compound 10 µM) of 1.47% and a viability, T/C (second compound 0.3 µM, first compound 0.0316 µM) of 1.21%. It also gave a viability, T/C (second compound 0.3 µM, first compound 0.1 µM) of 1.42%, a viability, T/C (second compound 0.3 µM, first compound 0.316 µM) of 1.39% and a viability, T/C (second compound 0.3 µM, first compound 1 µM) of 1.4%. For the same compound, the viability, T/C (second compound 0.3 µM, first compound 3.16 µM) was 1.35% and the viability, T/C (second compound 0.3 µM, first compound 10 µM) was 1.52%.
